Experiments:
[1] = biological target: T1, casein kinase 1 epsilon (CK1 epsilon) (Homo sapiens, UniProt P49674); assay: Filter-plate assay of ATP-33P: inhibition of phosphorylation of casein by CK1 epsilon; format: biochemical; details: casein substrate, 10 μM ATP, 2 hours at ambient temperature
T1 construct: Invitrogen Corporation (alternative)
Procedure: The capacity of the compounds of the invention to inhibit the phosphorylation of casein by casein kinase 1 epsilon and delta can be evaluated according to the procedure described in document US 2005/0131012.
Filter-Plate Assay of ATP-^33P for the Screening of CK1 Epsilon Inhibitors:
The effect of the compounds on inhibition of the phosphorylation of casein by the enzyme casein kinase 1 epsilon (CK1 epsilon) is measured using a casein assay with filtration of ATP-^33P in vitro.
Casein kinase 1 epsilon (0.58 mg/ml) is obtained via fermentation and purification processes carried out according to methods well known to those skilled in the art, or may also be obtained from Invitrogen Corporation™ (human CK1 epsilon).
The compounds are tested at five different concentrations so as to generate IC50 values, i.e. the concentration at which a compound is capable of inhibiting the enzymatic activity by 50%, or alternatively the % inhibition at a concentration of 10 micromolar.
“U”-bottomed Falcon plates are prepared by placing 5 μl of solutions of the compounds according to the invention at concentrations of 10, 1, 0.1, 0.01 or 0.001 μM in various wells. The solutions of the compounds according to the invention at these various concentrations are prepared by diluting in a test buffer (50 mM Tris, pH 7.5, […], 2 mM DTT and 1 mM EGTA) a stock solution in DMSO at a concentration of 10 mM. Next, 5 μl of dephosphorylated casein are added to a final concentration of 0.2 μg/μl, 20 μl of CK1 epsilon are added to a final concentration of 3 ng/μl, and 20 μl of ATP-^33P are added to a final concentration of 0.02 μCi/μl mixed with cold ATP (10 μM final—approximately 2×10^6 CPM per well). The final total test volume per well is equal to 50 μl.
The “U”-bottomed Falcon® test plate mentioned above is vortexed, and then incubated at ambient temperature for 2 hours. After 2 hours, the reaction is stopped by adding an ice-cold solution of 65 μl of cold ATP (2 mM) prepared in test buffer. 100 μl of the reaction mixture are then transferred from the “U”-bottomed Falcon®plate into Millipore MAPH filter plates, preimpregnated with 25 μl of ice-cold 100% TCA. […]
The plates are left to dry overnight at ambient temperature. […] The radiation emitted by each well is then measured for 2 minutes in a Packard® Topcount NXT scintillation counter, in which the values of CPM/well are measured.
The % inhibition of the capacity of the enzyme to phosphorylate the substrate (casein) is determined for each concentration of compound tested. These inhibition data expressed as percentages are used to calculate the IC50 value for each compound compared with the controls.
The kinetic studies determined the KM value for ATP as being 21 μM in this test system.

[2] = biological target: T2, casein kinase 1 delta (human CK1 delta PV3665) (Homo sapiens, UniProt P48730); assay: FRET fluorescence test (Z'Lyte kinase assay kit), phosphorylation of peptide substrate SER/THR 11; format: biochemical; details: peptide substrate 2 μM, ATP at 4 times the KM
T2 construct: purchased Invitrogen Corporation PV3665
Excerpt: The capacity of the compounds of the invention to inhibit the phosphorylation of casein by casein kinase 1 epsilon and casein kinase 1 delta can be evaluated using a FRET (Fluorescence Resonance Energy Transfer) fluorescence test by means of the “Z′Lyte™ kinase assay kit” (reference PV3670; Invitrogen Corporation™) according to the supplier's instructions.
The casein kinases 1 used are obtained from Invitrogen Corporation (human CK1 epsilon PV3500 and human CK1 delta PV3665).
A peptide substrate, labelled at both ends with a fluorophore donor group (coumarin) and a fluorophore acceptor group (fluorescein) constituting a FRET system is phosphorylated in the presence of ATP by casein kinase 1 epsilon or delta in the presence of increasing concentrations of compounds of the invention.
The mixture is treated with a site-specific protease that specifically cleaves the peptide substrate so as to form two fluorescent fragments having a large fluorescence emission ratio.
The fluorescence observed is thus related to the capacity of the products of the invention to inhibit the phosphorylation of the peptide substrate by casein kinase 1 epsilon or casein kinase 1 delta. […]
The emitted fluorescence is measured at wavelengths of 445 and 520 nm (excitation at 400 nm).

T1 sequence (P49674 whole entry): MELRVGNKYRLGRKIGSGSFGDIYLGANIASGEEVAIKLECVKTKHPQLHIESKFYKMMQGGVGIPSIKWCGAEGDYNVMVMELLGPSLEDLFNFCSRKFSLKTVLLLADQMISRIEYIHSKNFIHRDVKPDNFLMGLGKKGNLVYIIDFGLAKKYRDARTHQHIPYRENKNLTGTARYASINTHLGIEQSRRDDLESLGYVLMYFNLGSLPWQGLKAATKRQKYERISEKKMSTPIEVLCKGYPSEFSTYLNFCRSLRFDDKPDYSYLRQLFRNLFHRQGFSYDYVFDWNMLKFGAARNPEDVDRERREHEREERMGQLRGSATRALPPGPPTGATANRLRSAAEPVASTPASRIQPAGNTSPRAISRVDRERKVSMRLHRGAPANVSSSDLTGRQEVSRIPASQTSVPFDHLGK
T2 sequence (P48730 whole entry): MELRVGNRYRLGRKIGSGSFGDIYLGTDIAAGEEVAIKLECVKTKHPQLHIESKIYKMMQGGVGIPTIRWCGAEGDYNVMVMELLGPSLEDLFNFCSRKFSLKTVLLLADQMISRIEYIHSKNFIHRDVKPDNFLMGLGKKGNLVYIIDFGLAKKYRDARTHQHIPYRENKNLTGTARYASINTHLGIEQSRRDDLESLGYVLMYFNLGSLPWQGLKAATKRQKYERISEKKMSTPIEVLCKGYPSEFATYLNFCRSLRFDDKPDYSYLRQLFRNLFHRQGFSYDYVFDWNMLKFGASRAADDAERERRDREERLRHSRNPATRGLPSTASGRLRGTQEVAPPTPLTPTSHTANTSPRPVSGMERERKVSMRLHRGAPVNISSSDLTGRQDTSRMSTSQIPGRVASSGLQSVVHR

Row | IC50 [1] [nM] | IC50 [2] [nM] | SMILES
1 | 87 | 63 to 76 | Cc1ccc(-c2nc3ccc(N4CCNCC4)nn3c2-c2ccncc2)s1 [Compound 10, 2-(5-methylthien-2-yl)-6-(piperazin-1-yl)-3-(pyridin-4-yl)imidazo[1,2-b]pyridazine]
2 | 19 | 93 to 163 | OCCN1CCN(c2ccc3nc(-c4ccc(Cl)s4)c(-c4ccncc4)n3n2)CC1 [Compound 14, 2-{4-[2-(5-chlorothien-2-yl)-3-(pyridin-4-yl)imidazo[1,2-b]pyridazin-6-yl](piperazin-1-yl)}ethanol]

From US20130190314A1, “DERIVATIVES OF 6-CYCLOAMINO-2-THIENYL-3-(PYRIDIN-4-YL)IMIDAZO[1,2-b]-PYRIDAZINE AND 6-CYCLOAMINO-2-FURANYL-3-(PYRIDIN-4-YL)IMIDAZO[1,2-b]-PYRIDAZINE, PREPARATION AND THERAPEUTIC USE THEREOF” (priority 2008, published 2013)
